How the values were obtained:
[1] = test system: human CD34+-differentiated erythroid cells; assay: Isoelectric focusing gel of the samples analyzed by HPLC; type: cell-based; conditions: idoxuridine 0.3 and 0.65 μM (FIG. 4)
[2] = test system: human CD34+-differentiated erythroid cells; assay: HPLC hemoglobin analysis; type: cell-based; conditions: 0.3 or 0.65 μM, compared to DMSO treated cells (FIG. 2)
Procedure: (§1) Briefly, for the screen, 5×10^5 CD34^+ cells were expanded for six days in StemSpan SFEM medium (StemCell Technologies Inc., Vancouver, Canada) with SCF, IL-3, TPO and Flt-3 ligand. After expansion, 100,000 cells were distributed to each well (in a 24-well plate) and grown in SFEM medium with 2% P/S, 20 ng/ml SCF, 1 U/ml Epo, 5 ng/ml IL-3, 2 μM dexamethasone, and 1 μM β-estradiol. Individual small molecules were added to each well. Cells were differentiated for another nine days (for RNA analysis) or fourteen days (for hemoglobin analysis). The γ- and β-globin expression in each sample were analyzed by RT-PCR or HPLC.

[3] = test system: human CD34+-differentiated erythroid cells; assay: FACS analysis of fetal hemoglobin expressing erythroid cells (F cells); type: cell-based; conditions: 0.3, 0.5 or 0.7 μM, 14 days, compared to DMSO control (FIG. 1)
Source text: For fetal hemoglobin analysis, one million erythroid cells, differentiated for 14 days with or without idoxuridine in the medium, were washed with PBS that included 0.1% BSA, and fixed in 0.05% Glutaraldehyde (Sigma, G5882, St. Louis, Mo.). The fixed cells were washed three times with PBS that included 0.1% BSA, followed by permeabilization in 1% Triton X-100 (Life Technologies, HFH-10, Carlsbad, Calif.), before immunostaining with an antibody directed against HbF (Invitrogen, MHFH04, Carlsbad, Calif.).

[4] = test system: human CD34+-differentiated erythroid cells; assay: Western blot analysis of KLF1, BCL11A and LRF; type: cell-based; conditions: 0.7 uM, 7 days, compared to DMSO (FIG. 5)
Procedure: To analyze the expression of KLF1, BCL11A and LRF by Western blot, whole cell extracts were prepared from erythroid cells differentiated for seven days with DMSO or 0.7 uM of idoxuridine. Antibodies used included Actb (Santa Cruz, sc-47778 HRP, Dallas, Tex.), KLF1 (Santa Cruz, sc-14034), BCL11A (Abcam, ab19489, Cambridge, UK) and LRF (Abcam, ab175918).

[5] = test system: human CD34+-differentiated erythroid cells; assay: Library screen, RT-PCR of γ- and β-globin expression; type: cell-based
Procedure: as §1

[6] = test system: human β-globin BAC transgenic mice; assay: In vivo globin gene expression by qRT-PCR; set-up: species or system mouse; conditions: 100 mg/kg daily intraperitoneal injections for four weeks, blood, qRT-PCR (FIG. 6)
Procedure: To test if idoxuridine can induce mouse Ey2 and human γ-globin expression in human β-BAC transgenic mice, 100 mg/kg body weight of Idoxuridine were injected intraperitoneally (IP) into mice for 4 weeks. Blood samples were obtained at the end of Idoxuridine treatment and cDNAs were synthesized. Mouse Ey2 and human γ-globin expression were analyzed by qRT-PCR.

[7] = test system: human CD34+-differentiated erythroid cells; assay: RNAseq gene expression; type: cell-based
[8] = human CD34+-differentiated erythroid cells

Compound: O=c1[nH]c(=O)n([C@H]2C[C@H](O)[C@@H](CO)O2)cc1I [Idoxuridine, idoxuridine]
- HbF expression (isoelectric focusing gel) [1]: upregulated
- fetal hemoglobin (HPLC) [2]: significantly increases
- number of erythroid cells expressing fetal hemoglobin (F cells) [3]: increases
- BCL11A expression (Western blot) [4]: decreases
- KLF1 expression (Western blot) [4]: decreases
- HbF expression in a drug screen [5]: potent inducers
- HbF expression (reverse transcriptase-PCR) [5, 8]: upregulates
- γ-globin expression ([5]; human CD34+-differentiated erythroid cells contacted with idoxuridine): significantly increased
- human γ-globin gene expression [6]: increased
- mouse Ey-2 gene expression [6]: increased
- ε-globin gene expression ([7]; Table 1): reactivated
- RNAseq expression, BCL11A ([7]; gene BCL11A, idoxuridine treated cells): 478.2
- Fold change, BCL11A ([7]; gene BCL11A, idoxuridine vs DMSO control): 0.303
- RNAseq expression, HBB ([7]; gene HBB, idoxuridine treated cells): 20938
- Fold change, HBB ([7]; gene HBB, idoxuridine vs DMSO control): 0.2
- RNAseq expression, HBD ([7]; gene HBD, idoxuridine treated cells): 1798
- Fold change, HBD ([7]; gene HBD, idoxuridine vs DMSO control): 0.16
- RNAseq expression, HBE1 ([7]; gene HBE1, idoxuridine treated cells): 17051
- Fold change, HBE1 ([7]; gene HBE1, idoxuridine vs DMSO control): 560
- RNAseq expression, HBG1 ([7]; gene HBG1, idoxuridine treated cells): 18815
- Fold change, HBG1 ([7]; gene HBG1, idoxuridine vs DMSO control): 8.19
- RNAseq expression, HBG2 ([7]; gene HBG2, idoxuridine treated cells): 980
- Fold change, HBG2 ([7]; gene HBG2, idoxuridine vs DMSO control): 6
- RNAseq expression, SOX6 ([7]; gene SOX6, idoxuridine treated cells): 13
- Fold change, SOX6 ([7]; gene SOX6, idoxuridine vs DMSO control): 0.25
- BCL11A mRNA expression [7, 8]: decreased
- KLF1 mRNA expression [7, 8]: decreased

Compound: O=c1[nH]c(=O)n([C@H]2C[C@H](O)[C@@H](CO)O2)cc1C(F)(F)F [Trifluridine, trifluridine]
- HbF expression in a drug screen [5]: potent inducers
- γ-globin gene expression in the original screen ([5]; original screen): reactivated
